{
  "source": "paper PMC10600239",
  "about": "“Selective MCL-1 inhibitor ABBV-467 is efficacious in tumor models but is associated with cardiac troponin increases in patients” (Communications Medicine, 2023)",
  "tested_on": "AMO-1 xenografts",
  "test": "AMO-1 xenograft efficacy (tumor volume, body weight)",
  "type": "in vivo, mouse",
  "parameters": "key to Anti-tumor Activity vs. AMO-1 (DSMZ), Median / Anti-tumor Activity vs. AMO-1 (DSMZ), individual animal / Anti-tumor Activity vs. AMO-1 (DSMZ), Mean: tumor volume in mm^3 (length × width^2/2)",
  "description": "All animal studies were conducted in accordance with the guidelines approved by the Institutional Animal Care and Use Committees of AbbVie. The research protocol was approved by In Vivo Pharmacology at AbbVie prior to study initiation but was not publicly registered or disclosed. Female C.B-17 SCID-beige mice (AMO-1, OPM-2, NCI-H929, and OCI-AML2 xenografts) and female NSG mice (MV4-11-Red.Fluc systemic) were purchased from Charles River Laboratories (Wilmington, MA). Animals were housed in a light cycle-controlled room with HEPA filtration at 22 °C. Animals had nesting and climbing cage topper as the primary environmental enrichment. Animals were inoculated subcutaneously in the right flank with 5 × 10^6 (AMO-1, OPM-2, NCI-H929, and OCI-AML2) or intravenous (IV) with 5 × 10^6 (MV4-11-Red.Fluc). The inoculation volume (0.2 mL) comprised a 50:50 mixture of cells in growth media and Matrigel (BD Biosciences) for subcutaneous injections and 100% phosphate-buffered saline for IV administration. All cell lines used in this publication were authenticated using IDEXX for STR profiling as well as their IMPACT and human IMPACT panels for pathogen screening. Electronic calipers were used to measure the length and width of each tumor 2 to 3 times per week. Tumor volume was estimated by applying the following equation: volume = length × width^2/2. All groups remained blinded during measurements and dosing; only veterinary staff were aware of group identity. When tumors reached approximately 200 mm^3, mice were randomized by match and distributed into treatment and control groups. All xenograft trials were conducted using 5 to 10 mice per group, and all mice were ear tagged and monitored individually throughout the studies. […] Tumor burden in the systemic MV4-11-Red.Fluc experiment was measured using an IVIS® spectrum from PerkinElmer by taking the total photon flux of the entire dorsal side of an individual mouse. […] A background control mouse that was tumor naive but received D-Luciferin was placed in the upper left corner of each image. The total flux from this animal was subtracted from the total flux of each animal present in the image.\nFor in vivo studies, maximal tumor growth inhibition (TGI) was calculated as the greatest treatment response using the following equation: Maximal TGI = (1 − mean tumor volume of the treated group/mean tumor volume of the vehicle control group) × 100. The tumor growth delay (TGD) percentage was determined as the percentage increase of the median time period for the treatment group to reach an arbitrary tumor volume of 1000 mm^3 relative to the vehicle control group. […] A power analysis was conducted using historical data to determine the number of animals required to yield significance of 0.05 at a 30% difference. […] Data from experiments in vivo were analyzed using the student’s t-test for TGI values and the Mann–Whitney U test for TGD using Excel and GraphPad Prism. Fisher’s exact test was used to probe significance of differences in response frequency.",
  "key": {"[1]": {"conditions": "3.13 mg/kg IV QDx1, Day 13 (day before dosing begins)"}, "[2]": {"conditions": "3.13 mg/kg QDx1 IV, Day 26, n=8"}},
  "note": "Where “and” joins values, the source holds several entries; their conditions need not be identical. Equal entries are not always repeated.",
  "data": [
    {"compound": "Cc1c(Cl)c2c(Cl)c(C)c1-c1c(-c3ccc(F)cc3)sc3ncnc(c13)O[C@@H](C(=O)O)Cc1cc(ccc1OCc1ccnc(-c3ccc(OC[C@H]4COCCO4)cc3)n1)OC[C@@H](CN1CCN(C)CC1)O2", "note": "[Compound A-1747745.0]", "values": [
      {"measurement": "Starting Body Wt.", "setting": "3.13 mg/kg IV QDx1, AMO-1 xenograft, SCID-beige mice, in g (unit assumed)", "value": 21.625},
      {"measurement": "% Mortality", "setting": "3.13 mg/kg IV QDx1, clinical observation", "value": 100.00, "unit": "%"},
      {"measurement": "Anti-tumor Activity vs. AMO-1 (DSMZ), Mean", "setting": "3.13 mg/kg IV QDx1, day 13", "value": 216.27},
      {"measurement": "Anti-tumor Activity vs. AMO-1 (DSMZ), Median", "setting": "3.13 mg/kg IV QDx1, day 13", "value": 216.30},
      {"measurement": "Anti-tumor Activity vs. AMO-1 (DSMZ), individual animal", "setting": "3.13 mg/kg IV QDx1, day 13", "value": "219 and 210 and 215 and 217 and 224 and 221 and 209 and 214"},
      {"measurement": "Group Mean, Body Weight", "setting": "3.13 mg/kg IV QDx1, day 14", "value": 21.63, "unit": "g"},
      {"measurement": "Anti-tumor Activity vs. AMO-1 (DSMZ), Mean", "setting": "3.13 mg/kg IV QDx1, day 16", "value": 205.11},
      {"measurement": "Anti-tumor Activity vs. AMO-1 (DSMZ), Median", "setting": "3.13 mg/kg IV QDx1, day 16", "value": 207.59},
      {"measurement": "Anti-tumor Activity vs. AMO-1 (DSMZ), individual animal", "setting": "3.13 mg/kg IV QDx1, day 16", "value": "195 and 171 and 227 and 217 and 219 and 212 and 203 and 196"},
      {"measurement": "Anti-tumor Activity vs. AMO-1 (DSMZ), Mean", "setting": "3.13 mg/kg IV QDx1, day 19", "value": 192.25},
      {"measurement": "Anti-tumor Activity vs. AMO-1 (DSMZ), Median", "setting": "3.13 mg/kg IV QDx1, day 19", "value": 202.67},
      {"measurement": "Anti-tumor Activity vs. AMO-1 (DSMZ), individual animal", "setting": "3.13 mg/kg IV QDx1, day 19", "value": "210 and 196 and 181 and 173 and 128 and 213 and 209 and 227"},
      {"measurement": "Anti-tumor Activity vs. AMO-1 (DSMZ), Mean", "setting": "3.13 mg/kg IV QDx1, day 21", "value": 316.72},
      {"measurement": "Anti-tumor Activity vs. AMO-1 (DSMZ), Median", "setting": "3.13 mg/kg IV QDx1, day 21", "value": 336.29},
      {"measurement": "Anti-tumor Activity vs. AMO-1 (DSMZ), individual animal", "setting": "3.13 mg/kg IV QDx1, day 21", "value": "248 and 370 and 418 and 238 and 111 and 349 and 477 and 324"},
      {"measurement": "Anti-tumor Activity vs. AMO-1 (DSMZ), Mean", "setting": "3.13 mg/kg IV QDx1, day 23", "value": 463.98},
      {"measurement": "Anti-tumor Activity vs. AMO-1 (DSMZ), Median", "setting": "3.13 mg/kg IV QDx1, day 23", "value": 467.27},
      {"measurement": "Anti-tumor Activity vs. AMO-1 (DSMZ), individual animal", "setting": "3.13 mg/kg IV QDx1, day 23", "value": "595 and 419 and 553 and 359 and 205 and 462 and 647 and 473"},
      {"measurement": "Group Mean, Body Weight", "setting": "3.13 mg/kg IV QDx1, day 23", "value": 22.13, "unit": "g"},
      {"measurement": "Anti-tumor Activity vs. AMO-1 (DSMZ), Mean", "setting": "3.13 mg/kg IV QDx1, day 26", "value": 740.25},
      {"measurement": "Anti-tumor Activity vs. AMO-1 (DSMZ), Median", "setting": "3.13 mg/kg IV QDx1, day 26", "value": 757.36},
      {"measurement": "Anti-tumor Activity vs. AMO-1 (DSMZ), individual animal", "setting": "3.13 mg/kg IV QDx1, day 26", "value": "859 and 654 and 702 and 664 and 464 and 884 and 882 and 812"},
      {"measurement": "Anti-tumor Activity vs. AMO-1 (DSMZ), Mean", "setting": "3.13 mg/kg IV QDx1, day 28", "value": 1102.63},
      {"measurement": "Anti-tumor Activity vs. AMO-1 (DSMZ), Median", "setting": "3.13 mg/kg IV QDx1, day 28", "value": 1024.93},
      {"measurement": "Anti-tumor Activity vs. AMO-1 (DSMZ), individual animal", "setting": "3.13 mg/kg IV QDx1, day 28", "value": "1383 and 753 and 968 and 881 and 872 and 1157 and 1725 and 1082"},
      {"measurement": "Group Mean, Body Weight", "setting": "3.13 mg/kg IV QDx1, day 28", "value": 22.38, "unit": "g"},
      {"measurement": "Anti-tumor Activity vs. AMO-1 (DSMZ), Mean", "setting": "3.13 mg/kg IV QDx1, day 30", "value": 1440.23},
      {"measurement": "Anti-tumor Activity vs. AMO-1 (DSMZ), Median", "setting": "3.13 mg/kg IV QDx1, day 30", "value": 1430.49},
      {"measurement": "Anti-tumor Activity vs. AMO-1 (DSMZ), individual animal", "setting": "3.13 mg/kg IV QDx1, day 30", "value": "1812 and 984 and 1324 and 1150 and 1149 and 1537 and 1916 and 1649"},
      {"measurement": "Anti-tumor Activity vs. AMO-1 (DSMZ), Mean", "setting": "3.13 mg/kg IV QDx1, day 34", "value": 2233.47},
      {"measurement": "Anti-tumor Activity vs. AMO-1 (DSMZ), Median", "setting": "3.13 mg/kg IV QDx1, day 34", "value": 2203.67},
      {"measurement": "Anti-tumor Activity vs. AMO-1 (DSMZ), individual animal", "setting": "3.13 mg/kg IV QDx1, day 34", "value": "2874 and 1660 and 1699 and 1719 and 1802 and 2605 and 2742 and 2768"},
      {"measurement": "Xenograft AMO-1 (DSMZ) tumor volume Day 13, Mean", "setting": "[1]", "value": 216.27, "unit": "mm³"},
      {"measurement": "Xenograft AMO-1 (DSMZ) tumor volume Day 13, Median", "setting": "[1]", "value": 216.30, "unit": "mm³"},
      {"measurement": "% T/C (mean)", "setting": "3.13 mg/kg IV QDx1, Day 13 (day before dosing begins), mean(T)/mean(C)", "value": 100.07, "unit": "%"},
      {"measurement": "% T/C (median)", "setting": "3.13 mg/kg IV QDx1, Day 13 (day before dosing begins), median(T)/median(C)", "value": 100.06, "unit": "%"},
      {"measurement": "Xenograft AMO-1 (DSMZ) (mm³) Day 13, individual animals", "setting": "3.13 mg/kg IV QDx1, SCID-beige female mice, Day 13 (randomization, day before dosing begins)", "value": "219 mm³ and 210 mm³ and 215 mm³ and 217 mm³ and 224 mm³ and 221 mm³ and 209 mm³ and 214 mm³"},
      {"measurement": "Xenograft AMO-1 (DSMZ) tumor volume Day 26, Mean", "setting": "[2]", "value": 740.25, "unit": "mm³"},
      {"measurement": "Xenograft AMO-1 (DSMZ) tumor volume Day 26, Median", "setting": "[2]", "value": 757.36, "unit": "mm³"}
    ]}
  ]
}
